Where two headings read alike, the source gives them in different places.
Assay: PK of compound of Formula (Ia) after single subcutaneous dose of solution formulations in beagle dogs
Format: in vivo
Details: male, beagle, dog, plasma, sc, 12 mg/kg, mean ± SD
Description: Formulations containing the compound of Formula (Ia), or a pharmaceutically acceptable salt thereof, were prepared as solutions and optionally administered subcutaneously or intramuscularly to rats, rabbits, and/or dogs.
(§1) A solution of about 400 mg/mL of the compound of Formula (Ia) having 17.00 w/w % water, 36.40 w/w % PEG 300, 35.20 w/w % of a sodium salt of a compound of Formula (Ia), 5.00 w/w % ethanol, and 6.40 w/w % poloxamer 188 was prepared. The solution was administered subcutaneously to male beagle dogs at a dose level of about 12 mg/kg and male Wistar Han rats at a dose level of about 50 mg/kg. The pharmacokinetic profiles were determined, and the results for dogs are summarized in Table and Table, while the results for rats are summarized in Table and Table below.
as §1, with “500” for “400”, “14.06” for “17.00”, “30.12” for “36.40”
A solution of about 300 mg/mL of the compound of Formula (Ia) having 23.33 w/w % water, 48.99 w/w % PEG 300, 26.47 w/w % of a sodium salt of a compound of Formula (Ia), and 1.21 w/w % poloxamer 188 was prepared. The solution was administered subcutaneously to male beagle dogs at a dose level of about 6 mg/kg and male Wistar Han rats at a dose level of about 50 mg/kg. The pharmacokinetic profiles were determined, and the results for dogs are summarized in Table and Table, while the results for rats are summarized in Table and Table below.
as §1, with “18.80” for “17.00”, “40.25” for “36.40”, “34.38” for “35.20”, “1.57” for “6.40”
as §1, with “500” for “400”, “16.29” for “17.00”, “34.88” for “36.40”, “41.92” for “35.20”, “1.91” for “6.40”
as §1, with “20.90” for “17.00”, “44.72” for “36.40”, “and 34.38” for “35.20”, “(Ia)” for “(Ia), 5.00 w/w % ethanol, and 6.40 w/w % poloxamer 188”
A solution of about 400 mg/mL of the compound of Formula (Ia) having 19.90 w/w % water, 42.59 w/w % PEG 300, 34.38 w/w % of a sodium salt of a compound of Formula (Ia), and 3.13 w/w % poloxamer 188 was prepared. The solution was administered subcutaneously to male beagle dogs at a dose level of about 12 mg/kg and male Wistar Han rats at a dose level of about 50 mg/kg. […]

[1] = n = 3 dogs, SC 12 mg/kg, solution T, 400 mg/mL
[2] = n = 3 dogs, SC 12 mg/kg, solution U, 500 mg/mL

AUC(0-t) (male beagle dogs, single SC 12 mg/kg, 400 mg/mL solution Z (3.13% poloxamer 188), n = 3, read-out: AUC0-3024 h): 175 ± 32 µM·h | AUC(0-t) (male beagle dogs, single SC 12 mg/kg, 400 mg/mL solution Z (3.13% poloxamer 188), n = 3, read-out: AUC0-3696 h): 177 ± 31 µM·h | Cmax (male beagle dogs, single SC 12 mg/kg, 500 mg/mL solution X (5.00% ethanol, 1.91% poloxamer 188), n = 3): 125 ± 95 nM | AUC(0-t) (male beagle dogs, single SC 12 mg/kg, 500 mg/mL solution X (5.00% ethanol, 1.91% poloxamer 188), n = 3, read-out: AUC0-24 h): 0.663 ± 0.157 µM·h | AUC(0-t) (male beagle dogs, single SC 12 mg/kg, 500 mg/mL solution X (5.00% ethanol, 1.91% poloxamer 188), n = 3, read-out: AUC0-168 h): 6.01 ± 1.87 µM·h | AUC(0-t) (male beagle dogs, single SC 12 mg/kg, 500 mg/mL solution X (5.00% ethanol, 1.91% poloxamer 188), n = 3, read-out: AUC0-672 h): 46.1 ± 32.5 µM·h | AUC(0-t) (male beagle dogs, single SC 12 mg/kg, 500 mg/mL solution X (5.00% ethanol, 1.91% poloxamer 188), n = 3, read-out: AUC0-1344 h): 90.8 ± 60 µM·h | AUC(0-t) (male beagle dogs, single SC 12 mg/kg, 500 mg/mL solution X (5.00% ethanol, 1.91% poloxamer 188), n = 3, read-out: AUC0-1680 h): 106 ± 68 µM·h | AUC(0-t) (male beagle dogs, single SC 12 mg/kg, 500 mg/mL solution X (5.00% ethanol, 1.91% poloxamer 188), n = 3, read-out: AUC0-2016 h): 116 ± 75 µM·h | AUC(0-t) (male beagle dogs, single SC 12 mg/kg, 500 mg/mL solution X (5.00% ethanol, 1.91% poloxamer 188), n = 3, read-out: AUC0-2253 h): 124 ± 44 µM·h | AUC(0-t) (male beagle dogs, single SC 12 mg/kg, 500 mg/mL solution X (5.00% ethanol, 1.91% poloxamer 188), n = 3, read-out: AUC0-2688 h): 130 ± 83 µM·h | AUC(0-t) (male beagle dogs, single SC 12 mg/kg, 500 mg/mL solution X (5.00% ethanol, 1.91% poloxamer 188), n = 3, read-out: AUC0-3024 h): 135 ± 86 µM·h | AUC(0-t) (male beagle dogs, single SC 12 mg/kg, 500 mg/mL solution X (5.00% ethanol, 1.91% poloxamer 188), n = 3, read-out: AUC0-4032 h): 145 ± 90 µM·h | AUC(0-t) (male beagle dogs, single SC 12 mg/kg, 500 mg/mL solution X (5.00% ethanol, 1.91% poloxamer 188), n = 3, read-out: AUC0-4368 h): 148 ± 91 µM·h | AUC(0-inf) [1]: 219 ± 54 µM·h | Cmax [1]: 353 ± 148 nM | Tmax [1]: 13 ± 8.54 days | half-life [1]: 14.7 days | AUC(0-t) (n = 3 dogs, SC 12 mg/kg, solution T, 400 mg/mL, read-out: AUC0-24 h): 2.64 ± 0.5 µM·h | AUC(0-t) (n = 3 dogs, SC 12 mg/kg, solution T, 400 mg/mL, read-out: AUC0-168 h): 36 ± 26.2 µM·h | AUC(0-t) (n = 3 dogs, SC 12 mg/kg, solution T, 400 mg/mL, read-out: AUC0-336 h): 76.1 ± 46.7 µM·h | AUC(0-t) (n = 3 dogs, SC 12 mg/kg, solution T, 400 mg/mL, read-out: AUC0-672 h): 148 ± 51 µM·h | AUC(0-t) (n = 3 dogs, SC 12 mg/kg, solution T, 400 mg/mL, read-out: AUC0-1334 h): 197 ± 48 µM·h | AUC(0-t) (n = 3 dogs, SC 12 mg/kg, solution T, 400 mg/mL, read-out: AUC0-2016 h): 213 ± 53 µM·h | AUC(0-t) (n = 3 dogs, SC 12 mg/kg, solution T, 400 mg/mL, read-out: AUC0-2352 h): 216 ± 54 µM·h | AUC(0-inf) [2]: 141 ± 14 µM·h | Cmax [2]: 175 ± 29 nM | Tmax [2]: 14.3 ± 11.5 days | half-life [2]: 18.3 days | AUC(0-t) (n = 3 dogs, SC 12 mg/kg, solution U, 500 mg/mL, read-out: AUC0-24 h): 1.8 ± 0.85 µM·h | AUC(0-t) (n = 3 dogs, SC 12 mg/kg, solution U, 500 mg/mL, read-out: AUC0-168 h): 12.9 ± 5.1 µM·h | AUC(0-t) (n = 3 dogs, SC 12 mg/kg, solution U, 500 mg/mL, read-out: AUC0-336 h): 33.9 ± 14.2 µM·h | AUC(0-t) (n = 3 dogs, SC 12 mg/kg, solution U, 500 mg/mL, read-out: AUC0-672 h): 78.5 ± 11.4 µM·h | AUC(0-t) (n = 3 dogs, SC 12 mg/kg, solution U, 500 mg/mL, read-out: AUC0-1334 h): 118 ± 6 µM·h | AUC(0-t) (n = 3 dogs, SC 12 mg/kg, solution U, 500 mg/mL, read-out: AUC0-2016 h): 133 ± 11 µM·h | AUC(0-t) (n = 3 dogs, SC 12 mg/kg, solution U, 500 mg/mL, read-out: AUC0-2352 h): 136 ± 12 µM·h | Cmax (n = 3 dogs, SC 12 mg/kg, solution W, 400 mg/mL): 200 ± 90 nM | AUC(0-t) (n = 3 dogs, SC 12 mg/kg, solution W, 400 mg/mL, read-out: AUC0-24 h): 0.505 ± 0.194 µM·h | AUC(0-t) (n = 3 dogs, SC 12 mg/kg, solution W, 400 mg/mL, read-out: AUC0-168 h): 6.82 ± 3.38 µM·h | AUC(0-t) (n = 3 dogs, SC 12 mg/kg, solution W, 400 mg/mL, read-out: AUC0-672 h): 65.1 ± 43.1 µM·h | AUC(0-t) (n = 3 dogs, SC 12 mg/kg, solution W, 400 mg/mL, read-out: AUC0-1344 h): 123 ± 54 µM·h | AUC(0-t) (n = 3 dogs, SC 12 mg/kg, solution W, 400 mg/mL, read-out: AUC0-1680 h): 142 ± 50 µM·h | AUC(0-t) (n = 3 dogs, SC 12 mg/kg, solution W, 400 mg/mL, read-out: AUC0-2016 h): 154 ± 47 µM·h | AUC(0-t) (n = 3 dogs, SC 12 mg/kg, solution W, 400 mg/mL, read-out: AUC0-2253 h): 164 ± 44 µM·h | AUC(0-t) (n = 3 dogs, SC 12 mg/kg, solution W, 400 mg/mL, read-out: AUC0-2688 h): 170 ± 42 µM·h | AUC(0-t) (n = 3 dogs, SC 12 mg/kg, solution W, 400 mg/mL, read-out: AUC0-3024 h): 174 ± 41 µM·h | AUC(0-t) (n = 3 dogs, SC 12 mg/kg, solution W, 400 mg/mL, read-out: AUC0-4032 h): 181 ± 39 µM·h | AUC(0-t) (n = 3 dogs, SC 12 mg/kg, solution W, 400 mg/mL, read-out: AUC0-4368 h): 182 ± 38 µM·h
SMILES: CC(C)(C#Cc1ccc(-c2ccc(Cl)c3c(NS(C)(=O)=O)nn(CC(F)(F)F)c23)c([C@H](Cc2cc(F)cc(F)c2)NC(=O)Cn2nc(C(F)(F)F)c3c2C(F)(F)[C@@H]2C[C@H]32)n1)S(C)(=O)=O [compound of Formula (Ia)]
